This note sets out measurements from patent publication US20110092487A1, “NOVEL 3,8-DIAZA-BICYCLO[3.2.1]OCTANE-AND 3,9-DIAZA-BICYCLO[3.3.1]-NONANE-3-CARBOXYLIC ACID ESTER DERIVATIVES AND THEIR USE AS MONOAMINE NEUROT[…]-UPTAKE INHIBITORS” (NeuroSearch A/S, priority 2008, published 2011).

pIC50: −log10 of the molar value.

What all share (format): biochemical
For assay [1], the target named is T1, dopamine (DA) reuptake in synaptosomes (Rattus norvegicus, UniProt P23977).
T1 construct: in synaptosomes as described in WO 97/16451 (NeuroSearch A/S); from tissue
The assay can be described thus: Inhibition of DA reuptake in synaptosomes. Particulars: 3H-DA, read-out: DA-uptake IC50. The text has this:
(§1) Compounds of the invention may be tested for their ability to inhibit reuptake of the monoamines dopamine, noradrenaline and serotonin in synaptosomes e.g. such as described in WO 97/30997 (NeuroSearch NS) or WO 97/16451 (NeuroSearch NS). Based on the balanced activity observed in these tests the compound of the invention is considered useful for the treatment, prevention or alleviation of a disease or a disorder or a condition of a mammal, including a human, which disease, disorder or condition is responsive to inhibition of monoamine neurotransmitter re-uptake in the central nervous system.
(§2) Compounds were tested for their ability to inhibit the reuptake of the monoamine neurotransmitters dopamine (DA) noradrenaline (NA) and serotonine (5-HT) in synaptosomes as described in WO 97/16451 (NeuroSearch A/S).
(§3) The test values are given as IC50 (the concentration (μM) of the test substance which inhibits the specific binding of ^3H-DA, ^3H-NA, or ^3H-5-HT by 50%).

Assay [2] addresses T2, noradrenaline (NA) reuptake in synaptosomes (Rattus norvegicus, UniProt Q63380).
T2 construct: in synaptosomes as described in WO 97/16451 (NeuroSearch A/S); from tissue
Put plainly: Inhibition of NA reuptake in synaptosomes. The note with it: 3H-NA, read-out: NA-uptake IC50.
Description: as §1, §2, §3

Assay [3] addresses T3, serotonine (5-HT) reuptake in synaptosomes (Rattus norvegicus, UniProt P31652).
T3 construct: in synaptosomes as described in WO 97/16451 (NeuroSearch A/S); from tissue
Put plainly: Inhibition of 5-HT reuptake in synaptosomes. Particulars: 3H-5-HT, read-out: 5-HT-uptake IC50.
Description: as §1, §2, §3

T1 sequence (P23977 whole entry): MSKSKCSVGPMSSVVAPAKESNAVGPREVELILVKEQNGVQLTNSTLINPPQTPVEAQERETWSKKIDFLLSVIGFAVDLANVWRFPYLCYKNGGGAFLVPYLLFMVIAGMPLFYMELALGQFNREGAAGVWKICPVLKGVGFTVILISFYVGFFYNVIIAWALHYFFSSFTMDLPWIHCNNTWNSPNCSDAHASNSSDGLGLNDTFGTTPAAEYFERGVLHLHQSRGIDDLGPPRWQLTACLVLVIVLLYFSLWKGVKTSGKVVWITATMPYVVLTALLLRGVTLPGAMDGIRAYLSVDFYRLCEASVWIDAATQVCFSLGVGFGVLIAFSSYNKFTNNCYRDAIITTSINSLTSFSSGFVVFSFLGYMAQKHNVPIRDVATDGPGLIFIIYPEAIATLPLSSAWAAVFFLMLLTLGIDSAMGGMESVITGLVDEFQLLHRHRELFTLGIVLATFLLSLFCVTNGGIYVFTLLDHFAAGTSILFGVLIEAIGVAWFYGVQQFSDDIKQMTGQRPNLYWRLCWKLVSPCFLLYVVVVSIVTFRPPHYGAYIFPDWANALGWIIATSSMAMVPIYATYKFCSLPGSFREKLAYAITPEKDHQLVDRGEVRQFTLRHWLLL
T3 sequence (P31652 whole entry): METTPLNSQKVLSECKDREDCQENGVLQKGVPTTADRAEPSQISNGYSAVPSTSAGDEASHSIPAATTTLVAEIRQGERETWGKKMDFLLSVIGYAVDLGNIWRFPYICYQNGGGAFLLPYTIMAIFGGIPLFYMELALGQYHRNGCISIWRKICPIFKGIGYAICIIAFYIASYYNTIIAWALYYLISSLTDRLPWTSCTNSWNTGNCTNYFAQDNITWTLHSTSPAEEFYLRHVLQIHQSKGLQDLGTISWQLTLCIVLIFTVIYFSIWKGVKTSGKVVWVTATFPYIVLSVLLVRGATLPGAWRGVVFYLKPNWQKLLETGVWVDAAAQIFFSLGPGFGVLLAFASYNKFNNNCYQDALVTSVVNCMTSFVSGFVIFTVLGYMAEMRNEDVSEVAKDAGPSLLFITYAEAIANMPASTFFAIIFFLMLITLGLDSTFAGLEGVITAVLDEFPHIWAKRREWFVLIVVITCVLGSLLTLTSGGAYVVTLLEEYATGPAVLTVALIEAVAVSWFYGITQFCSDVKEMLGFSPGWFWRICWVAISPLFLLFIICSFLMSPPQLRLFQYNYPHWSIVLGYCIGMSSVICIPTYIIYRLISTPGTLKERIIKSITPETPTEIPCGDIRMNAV
T2 sequence (Q63380 1-617): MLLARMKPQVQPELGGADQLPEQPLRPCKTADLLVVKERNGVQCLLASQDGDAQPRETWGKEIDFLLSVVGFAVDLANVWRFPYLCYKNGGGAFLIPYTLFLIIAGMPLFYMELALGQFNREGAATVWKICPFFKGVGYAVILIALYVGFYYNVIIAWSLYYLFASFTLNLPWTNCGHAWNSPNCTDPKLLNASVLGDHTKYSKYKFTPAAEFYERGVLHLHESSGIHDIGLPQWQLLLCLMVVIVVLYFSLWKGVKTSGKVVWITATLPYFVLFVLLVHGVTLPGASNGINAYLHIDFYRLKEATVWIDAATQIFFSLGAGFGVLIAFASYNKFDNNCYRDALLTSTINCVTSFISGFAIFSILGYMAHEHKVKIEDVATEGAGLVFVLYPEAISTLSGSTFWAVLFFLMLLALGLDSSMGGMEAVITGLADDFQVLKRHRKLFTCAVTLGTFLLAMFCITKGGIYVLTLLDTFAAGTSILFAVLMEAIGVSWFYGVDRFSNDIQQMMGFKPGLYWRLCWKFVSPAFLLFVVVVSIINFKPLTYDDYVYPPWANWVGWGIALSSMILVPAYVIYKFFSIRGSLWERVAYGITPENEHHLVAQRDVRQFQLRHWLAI

For `O=C(Oc1ccc2ccc(=O)oc2c1)N1CC2CCC(C1)N2` [3,8-Diaza-bicyclo[3.2.1]octane-3-carboxylic acid 2-oxo-2H-chromen-7-yl ester], the pIC50 in assay [1] is 7.04; in assay [2], 6.21; in assay [3], 7.57.
For `O=C(Oc1ccc(Cl)c(Cl)c1)N1CC2CCCC(C1)N2` [3,9-Diaza-bicyclo[3.3.1]nonane-3-carboxylic acid 3,4-dichloro-phenyl ester], in that order: below 6.00, 5.70 and 8.11.
In the case of `CN1C2CCCC1CN(C(=O)Oc1ccc3ccc(=O)oc3c1)C2` [9-Methyl-3,9-diaza-bicyclo[3.3.1]nonane-3-carboxylic acid 2-oxo-2H-chromen-7-yl ester], the pIC50 was 6.21 in assay [1], 5.80 in assay [2] and 7.40 in assay [3].
For `COc1ccc2cc(OC(=O)N3CC4CCCC(C3)N4C)ccc2c1` [9-Methyl-3,9-diaza-bicyclo[3.3.1]nonane-3-carboxylic acid 6-methoxynaphthalen-2-yl ester], in that order: 7.52, 7.62 and 6.47.

Usually pIC50 stands for −log10 of the IC50, conventionally taken in molar units.
